According to US20100226853A1 (priority 2007, published 2010):

Experiments:
SRC = SRC (Homo sapiens, UniProt P12931); assay: biochemical
Description: (§1) An ELISA-based assay was used in which the phosphorylation of an oligopeptide substrate was detected by an HRP-conjugated anti-p-Tyr (PY20) probe.

[1] = Protein binding assay, serum; format: in vitro ADME; details: fresh human serum
Protocol: (§2) Protein binding of the radiotracers were determined adding 37 kBq (1 μCi) of each radioligand to samples of 1% bovine serum albumin and 1 mL of fresh human serum. The protein was precipitated by adding 1 mL of ice cold 20% trichloroacetic acid and the suspension centrifuged and washing with 1 mL of 20% ice cold trichloroacetic acid. The protein pellets and supernatants were counted in a gamma counter to determine the protein binding of the radioligands.

SYK = target: T1, SYK (Homo sapiens, UniProt P43405); assay: QuickScout ELISA kinase panel; format: biochemical; details: read-out: % Inhibition of Kinase Activity, SYK
T1 construct: purchased Carna Biosciences (Kobe, Japan), QuickScout service
Description: as §1

FGFR1 = target: T2, FGFR1 (Homo sapiens, UniProt P11362); assay: QuickScout ELISA kinase panel; format: biochemical; details: Compound 5 at 10 nM
T2 construct: purchased Carna Biosciences (QuickScout service)
Description: as §1

TRKA = target: T3, TRKA (Homo sapiens, UniProt P04629); assay: QuickScout ELISA kinase panel; format: biochemical; details: Compound 5 at 10 nM; negative = enhanced phosphorylation
T3 construct: purchased Carna Biosciences (Kobe, Japan), QuickScout service
Description: as §1

EGFR = target: T4, EGFR (Homo sapiens, UniProt P00533); assay: QuickScout ELISA kinase panel; format: biochemical; details: Compound 5 at 10 nM
T4 construct: purchased Carna Biosciences (QuickScout service)
Description: as §1

IGF1R = target: T5, IGF1R (Homo sapiens, UniProt P08069); assay: QuickScout ELISA kinase panel; format: biochemical; details: Compound 5 at 10 nM
T5 construct: purchased Carna Biosciences (QuickScout service)
Description: as §1

TIE2 = target: T6, TIE2 (Homo sapiens, UniProt Q02763); assay: QuickScout ELISA kinase panel; format: biochemical; details: Compound 5 at 10 nM; negative = enhanced phosphorylation
T6 construct: purchased Carna Biosciences (Kobe, Japan), QuickScout service
Description: as §1

KDR = target: T7, KDR (Homo sapiens, UniProt P35968); assay: QuickScout ELISA kinase panel; format: biochemical; details: Compound 5 at 10 nM; negative = enhanced phosphorylation
T7 construct: purchased Carna Biosciences (Kobe, Japan), QuickScout service
Description: as §1

FAK = target: T8, FAK (Homo sapiens, UniProt Q05397); assay: QuickScout ELISA kinase panel; format: biochemical; details: read-out: % Inhibition of Kinase Activity, FAK
T8 construct: purchased Carna Biosciences (QuickScout service)
Description: as §1

KIT = target: T9, KIT (Homo sapiens, UniProt P10721); assay: QuickScout ELISA kinase panel; format: biochemical
T9 construct: purchased Carna Biosciences (Kobe, Japan), QuickScout service
Description: as §1

1% bovine serum albumin = target: T10, 1% bovine serum albumin (Bos taurus, UniProt P02769); assay: Protein binding assay, BSA; format: in vitro ADME
T10 construct: from tissue; host or cells: bovine serum (from the protein's name)
Protocol: as §2

B6D2F1 mice = assay: Acute toxicity in mice; format: in vivo; details: for toxicity in mice: 0.1 mg/kg intravenously, single dose, 14 days observation
Description: Each group contained three mice. […] There were five males and five females in either control or treatment group. […] Mice were sent for pathology, including complete blood cell count, complete chemistry panel and complete necropsy. Two intact male mice and two intact female mice were also sent and used as references.

PDGFR— = target: T11, PDGFR— (Homo sapiens, UniProt P16234); assay: QuickScout ELISA kinase panel; format: biochemical; details: Compound 5 at 10 nM
T11 construct: purchased Carna Biosciences (Kobe, Japan), QuickScout service
Description: (§3) . […] An ELISA-based assay was used in which the phosphorylation of an oligopeptide substrate was detected by an HRP-conjugated anti-p-Tyr (PY20) probe. […]. The data appears in Table 2 in Example 3.

ACK = target: T12, ACK (Homo sapiens, UniProt Q07912); assay: QuickScout ELISA kinase panel; format: biochemical; details: Compound 5 at 10 nM
T12 construct: purchased Carna Biosciences (QuickScout service)
Description: as §3

CSK = target: T13, CSK (Homo sapiens, UniProt P41240); assay: QuickScout ELISA kinase panel; format: biochemical; details: Compound 5 at 10 nM
T13 construct: purchased Carna Biosciences (QuickScout service)
Description: as §3

FLT3 = target: T14, FLT3 (Homo sapiens, UniProt P36888); assay: QuickScout ELISA kinase panel; format: biochemical; details: Compound 5 at 10 nM
T14 construct: purchased Carna Biosciences (Kobe, Japan), QuickScout service
Description: as §3

EphA2 = target: T15, EphA2 (Homo sapiens, UniProt P29317); assay: QuickScout ELISA kinase panel; format: biochemical; details: Compound 5 at 10 nM
T15 construct: purchased Carna Biosciences (QuickScout service)
Description: as §3

K562 cells = assay: Cellular proliferation, [3H]thymidine uptake; format: cell-based; details: Homo sapiens, K562, read-out: IC50, K562 cells proliferation
Protocol: (§4) The immortalized human hematopoietic Philadelphia chromosome-positive cytokine independent R10(−) M07e^p210 cell line (46) was maintained in Iscove's modified Dulbecco's medium (Life Technologies, Inc., Grand Island, N.Y.) containing 10% FCS (Hyclone, Logan, Utah). The parental M07e megakaryoblastic cell line was a kind gift of Brian Druker and was maintained in the presence of 50 ng/mL kit ligand (SCF) as described (46-47) K562 was obtained from the ATCC. […] Tumor cell cultures were maintained in a humidified atmosphere with 5% CO2 at 37° C. (NuAire).
(§5) Data points for all assays were obtained in triplicate, and background incorporation from cell-free wells was determined and subtracted from all data points. The data was analyzed using a non-linear regression fit to a sigmoidal dose-response curve using Prism 4 (GraphPad Software, Inc).

[2] = tested on: R10 neg cells (MO7e/p210^bcr-abl); assay: Cellular proliferation, [3H]thymidine uptake; format: cell-based; details: Homo sapiens, read-out: IC50, R10 neg cells (MO7e/p210^bcr-abl) proliferation
Protocol: as §4, §5

M07e cells = assay: Cellular proliferation, [3H]thymidine uptake, Kit ligand dependent growth; format: cell-based; details: Homo sapiens, M-07e, read-out: IC50, M07e cells proliferation
Protocol: The immortalized human hematopoietic Philadelphia chromosome-positive cytokine independent R10(−) M07e^p210 cell line (46) was maintained in Iscove's modified Dulbecco's medium (Life Technologies, Inc., Grand Island, N.Y.) containing 10% FCS (Hyclone, Logan, Utah). The parental M07e megakaryoblastic cell line was a kind gift of Brian Druker and was maintained in the presence of 50 ng/mL kit ligand (SCF) as described (46-47) K562 was obtained from the ATCC. K562 was maintained in suspension in 90% RPMI 1640 medium supplemented with 10% FBS, 2 mM L-glutamine, 10 mM HEPES, 1 mM sodium pyruvate, 1.5 g/L sodium bicarbonate, 4.5 g/L […], 10% FBS, 100 IU/mL penicillin and 100 μg/ml streptomycin. Tumor cell cultures were maintained in a humidified atmosphere with 5% CO2 at 37° C. (NuAire).
. Data points for all assays were obtained in triplicate, and background incorporation from cell-free wells was determined and subtracted from all data points. The data was analyzed using a non-linear regression fit to a sigmoidal dose-response curve using Prism 4 (GraphPad Software, Inc).

[3] = 0.1 mg/kg i.v., 14 days, average, same in control group

Chain of SRC (P12931 whole entry): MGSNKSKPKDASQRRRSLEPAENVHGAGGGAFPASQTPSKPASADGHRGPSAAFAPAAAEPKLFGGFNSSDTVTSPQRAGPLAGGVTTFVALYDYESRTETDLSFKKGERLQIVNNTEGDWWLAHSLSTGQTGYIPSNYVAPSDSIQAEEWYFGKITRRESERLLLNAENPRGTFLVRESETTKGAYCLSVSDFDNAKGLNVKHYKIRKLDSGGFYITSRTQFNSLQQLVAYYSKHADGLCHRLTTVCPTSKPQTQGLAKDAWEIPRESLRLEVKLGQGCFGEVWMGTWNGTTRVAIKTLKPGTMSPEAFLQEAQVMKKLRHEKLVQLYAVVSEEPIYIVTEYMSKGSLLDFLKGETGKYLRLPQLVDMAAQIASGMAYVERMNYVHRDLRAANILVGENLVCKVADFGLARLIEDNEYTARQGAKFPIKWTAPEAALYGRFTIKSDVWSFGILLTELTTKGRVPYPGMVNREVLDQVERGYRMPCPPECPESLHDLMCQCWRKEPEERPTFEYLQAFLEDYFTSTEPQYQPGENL
T9 sequence (P10721 26-976): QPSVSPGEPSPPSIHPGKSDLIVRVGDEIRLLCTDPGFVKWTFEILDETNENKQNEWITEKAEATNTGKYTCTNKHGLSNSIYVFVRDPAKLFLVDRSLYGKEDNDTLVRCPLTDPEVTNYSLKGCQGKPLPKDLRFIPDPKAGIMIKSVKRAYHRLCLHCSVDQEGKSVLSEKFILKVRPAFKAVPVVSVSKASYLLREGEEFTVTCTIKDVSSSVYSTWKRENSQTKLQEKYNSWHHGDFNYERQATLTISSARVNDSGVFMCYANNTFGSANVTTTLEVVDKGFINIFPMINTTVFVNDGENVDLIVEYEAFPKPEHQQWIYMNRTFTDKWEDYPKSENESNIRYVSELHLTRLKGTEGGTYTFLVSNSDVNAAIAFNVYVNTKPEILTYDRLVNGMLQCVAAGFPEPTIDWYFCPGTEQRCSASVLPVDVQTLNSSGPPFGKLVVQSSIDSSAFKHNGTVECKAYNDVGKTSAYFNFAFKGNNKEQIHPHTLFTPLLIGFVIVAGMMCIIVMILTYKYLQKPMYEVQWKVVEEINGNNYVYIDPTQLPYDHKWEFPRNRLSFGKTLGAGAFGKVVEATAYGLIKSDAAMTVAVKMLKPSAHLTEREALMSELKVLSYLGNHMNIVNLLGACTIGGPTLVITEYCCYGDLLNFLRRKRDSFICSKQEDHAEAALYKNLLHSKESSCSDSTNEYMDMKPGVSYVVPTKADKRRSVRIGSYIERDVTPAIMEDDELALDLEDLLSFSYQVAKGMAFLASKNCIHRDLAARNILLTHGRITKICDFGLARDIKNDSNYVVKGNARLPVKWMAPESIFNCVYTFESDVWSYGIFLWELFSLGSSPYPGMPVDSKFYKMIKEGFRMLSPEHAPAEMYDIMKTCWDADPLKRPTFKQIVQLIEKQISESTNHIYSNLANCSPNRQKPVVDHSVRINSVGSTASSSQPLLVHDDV
T2 sequence (P11362 22-822): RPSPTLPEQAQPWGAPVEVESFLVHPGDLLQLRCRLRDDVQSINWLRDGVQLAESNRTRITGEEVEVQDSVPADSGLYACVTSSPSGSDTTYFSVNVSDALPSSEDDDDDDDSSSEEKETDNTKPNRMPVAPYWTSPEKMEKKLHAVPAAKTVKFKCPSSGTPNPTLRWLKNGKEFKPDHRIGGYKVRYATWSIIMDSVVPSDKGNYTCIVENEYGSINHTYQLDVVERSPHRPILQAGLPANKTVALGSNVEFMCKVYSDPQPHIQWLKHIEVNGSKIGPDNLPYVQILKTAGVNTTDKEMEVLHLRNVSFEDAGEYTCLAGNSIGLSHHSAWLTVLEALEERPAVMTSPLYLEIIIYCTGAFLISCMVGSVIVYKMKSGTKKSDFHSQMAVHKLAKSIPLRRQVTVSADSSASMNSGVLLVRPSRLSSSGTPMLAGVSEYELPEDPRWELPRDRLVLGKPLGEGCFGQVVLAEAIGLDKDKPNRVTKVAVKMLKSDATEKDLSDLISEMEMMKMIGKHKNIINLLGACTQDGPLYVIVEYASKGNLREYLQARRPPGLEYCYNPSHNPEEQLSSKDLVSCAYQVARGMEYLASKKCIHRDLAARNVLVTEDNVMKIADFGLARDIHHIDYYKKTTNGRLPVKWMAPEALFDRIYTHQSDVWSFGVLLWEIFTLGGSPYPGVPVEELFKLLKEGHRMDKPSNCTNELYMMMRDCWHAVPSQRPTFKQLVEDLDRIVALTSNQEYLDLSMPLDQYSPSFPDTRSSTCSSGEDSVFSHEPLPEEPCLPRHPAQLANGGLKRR
T15 sequence (P29317 24-976): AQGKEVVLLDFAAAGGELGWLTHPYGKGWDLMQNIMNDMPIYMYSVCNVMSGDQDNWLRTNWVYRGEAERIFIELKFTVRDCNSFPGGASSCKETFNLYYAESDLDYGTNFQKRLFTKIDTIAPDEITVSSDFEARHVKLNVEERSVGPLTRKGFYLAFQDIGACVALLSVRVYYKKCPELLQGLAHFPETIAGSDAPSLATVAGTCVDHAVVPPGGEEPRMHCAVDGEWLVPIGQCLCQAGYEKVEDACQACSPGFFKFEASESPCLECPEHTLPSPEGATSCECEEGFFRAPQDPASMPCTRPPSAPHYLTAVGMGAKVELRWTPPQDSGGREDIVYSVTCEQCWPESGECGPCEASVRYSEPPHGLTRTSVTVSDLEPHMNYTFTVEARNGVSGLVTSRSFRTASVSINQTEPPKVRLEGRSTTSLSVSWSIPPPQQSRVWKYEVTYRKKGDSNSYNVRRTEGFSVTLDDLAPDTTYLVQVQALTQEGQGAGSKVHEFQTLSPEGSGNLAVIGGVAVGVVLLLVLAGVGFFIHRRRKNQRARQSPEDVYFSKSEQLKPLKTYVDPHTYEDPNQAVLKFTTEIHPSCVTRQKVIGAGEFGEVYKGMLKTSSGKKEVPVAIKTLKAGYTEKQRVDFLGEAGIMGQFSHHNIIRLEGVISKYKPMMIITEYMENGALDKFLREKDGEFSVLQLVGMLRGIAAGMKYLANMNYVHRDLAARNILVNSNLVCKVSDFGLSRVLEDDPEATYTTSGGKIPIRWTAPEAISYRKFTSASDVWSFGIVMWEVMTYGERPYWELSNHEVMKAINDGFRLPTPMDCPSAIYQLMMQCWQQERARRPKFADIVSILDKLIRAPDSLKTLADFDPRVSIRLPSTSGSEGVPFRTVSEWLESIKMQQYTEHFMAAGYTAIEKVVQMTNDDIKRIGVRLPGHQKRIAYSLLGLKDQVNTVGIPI
T13 sequence (P41240 whole entry): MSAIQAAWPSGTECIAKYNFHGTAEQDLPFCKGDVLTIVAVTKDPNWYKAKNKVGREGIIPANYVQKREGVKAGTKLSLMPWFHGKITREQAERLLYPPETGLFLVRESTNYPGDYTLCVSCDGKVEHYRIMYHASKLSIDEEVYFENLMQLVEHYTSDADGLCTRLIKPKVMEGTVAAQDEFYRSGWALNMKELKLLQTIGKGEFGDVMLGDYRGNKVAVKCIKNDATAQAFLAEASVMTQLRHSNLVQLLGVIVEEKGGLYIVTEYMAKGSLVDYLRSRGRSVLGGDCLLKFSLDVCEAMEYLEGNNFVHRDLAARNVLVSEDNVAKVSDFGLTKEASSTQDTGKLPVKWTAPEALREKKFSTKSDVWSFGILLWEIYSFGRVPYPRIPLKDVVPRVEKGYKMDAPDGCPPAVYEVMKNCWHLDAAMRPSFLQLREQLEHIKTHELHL
T12 sequence (Q07912 whole entry): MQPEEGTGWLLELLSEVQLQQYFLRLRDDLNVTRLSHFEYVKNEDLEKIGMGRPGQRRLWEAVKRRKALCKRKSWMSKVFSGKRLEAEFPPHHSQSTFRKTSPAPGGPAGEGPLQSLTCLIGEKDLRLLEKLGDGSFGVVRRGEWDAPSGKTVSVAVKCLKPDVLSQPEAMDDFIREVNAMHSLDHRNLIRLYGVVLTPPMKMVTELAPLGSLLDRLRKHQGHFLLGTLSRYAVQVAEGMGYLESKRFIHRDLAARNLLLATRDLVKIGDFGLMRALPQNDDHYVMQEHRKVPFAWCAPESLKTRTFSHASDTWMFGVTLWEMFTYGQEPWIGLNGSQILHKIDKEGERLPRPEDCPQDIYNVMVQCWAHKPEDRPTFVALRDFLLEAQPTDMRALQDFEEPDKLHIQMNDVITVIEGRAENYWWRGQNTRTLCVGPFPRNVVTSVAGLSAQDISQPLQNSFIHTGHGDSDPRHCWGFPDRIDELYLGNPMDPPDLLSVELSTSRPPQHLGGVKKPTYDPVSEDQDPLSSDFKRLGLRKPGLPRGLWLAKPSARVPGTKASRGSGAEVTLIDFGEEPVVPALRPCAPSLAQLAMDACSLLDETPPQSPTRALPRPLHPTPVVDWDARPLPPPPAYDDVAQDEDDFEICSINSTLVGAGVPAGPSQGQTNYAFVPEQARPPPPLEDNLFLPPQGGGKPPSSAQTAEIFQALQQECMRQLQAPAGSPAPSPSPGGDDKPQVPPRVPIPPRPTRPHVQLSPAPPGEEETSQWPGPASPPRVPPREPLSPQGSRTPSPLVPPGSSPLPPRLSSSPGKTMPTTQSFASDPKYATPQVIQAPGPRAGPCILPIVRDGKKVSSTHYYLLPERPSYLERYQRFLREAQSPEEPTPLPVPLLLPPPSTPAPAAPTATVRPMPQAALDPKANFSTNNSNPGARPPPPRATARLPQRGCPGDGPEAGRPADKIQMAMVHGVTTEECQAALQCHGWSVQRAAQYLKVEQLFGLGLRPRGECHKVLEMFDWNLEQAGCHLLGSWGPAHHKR

With `Cc1nc(Nc2ncc(C(=O)Nc3c(C)cccc3Cl)s2)cc(N2CCN(CCF)CC2)n1` [Compound 5, N-(2-Chloro-6-methylphenyl)-2-(6-(4-(2-fluoroethyl)piperazin-1-yl)-2-methylpyrimidin-4-ylamino)thiazole-5-carboxamide] the IC50 (SRC) was under 2 nM, the “% Inhibition of Kinase Activity, SRC” value (SRC; Compound 5 at 10 nM, 0.01 µM) was 97.5% and the inhibition at 0.01 µM (SRC; read-out: % Inhibition of Kinase Activity, SRC, Compound 5 at 10 nM) was over 97%. The “protein bound in serum” value [1] was 98.5±1.0%, the inhibition at 0.01 µM (SYK) was 4.5% and the inhibition at 0.01 µM (FGFR1) was 20.4%. The inhibition at 0.01 µM (TRKA) was -0.9%, the inhibition at 0.01 µM (EGFR) was 27.2% and the inhibition at 0.01 µM (IGF1R) was 5.9%. The inhibition at 0.01 µM (TIE2) was -51.7%, the inhibition at 0.01 µM (KDR) was -5.6% and the inhibition at 0.01 µM (FAK) was -18.3%. For the same compound, the IC50 (KIT) was under 2 nM, the inhibition at 0.01 µM (KIT; Compound 5 at 10 nM) was over 97% and the “% Inhibition of Kinase Activity, KIT” value (KIT; Compound 5 at 10 nM, 0.01 µM) was 98.7%. For the same compound, the “protein bound in 1% BSA” value (1% bovine serum albumin) was 99.0±0.3%, the “body weight gain, female mice” value (B6D2F1 mice; [3]) was 0.5 g and the “body weight gain, male mice” value (B6D2F1 mice; [3]) was 1.8 g. The toxicity in mice (B6D2F1 mice) was “has not shown toxicity”, the toxicity in mice (B6D2F1 mice; listed as fluoro derivative 5) was “safe and nontoxic” and the inhibition at 0.01 µM (PDGFR—) was 86%. It also gave an inhibition at 0.01 µM (ACK) of 83.1%, an inhibition at 0.01 µM (CSK) of 95.2% and an inhibition at 0.01 µM (FLT3) of 0.3%. The inhibition at 0.01 µM (EphA2) was 98.1%, the IC50 (K562 cells) was 1.1 nM and the IC50 [2] was 0.1 nM. The IC50 (M07e cells) was 1.1 nM.
